Laboratory results as given in PMC2186054 (The Journal of Experimental Medicine, 1981).
Values joined by “and” are separate entries in the source; they are usually repeats but may differ in a detail not shown here. Equal entries are not always repeated.

Legend:
[1] = tested on: myeloma protein CAL20 TEPC1035; assay: Quantitative precipitin inhibition assay, CAL20 TEPC1035 with dextran B1498S; type: binding, murine; conditions: for Relative potency: Table II, maltose = 1.0
myeloma protein MOPC104E [2] = target: T1, myeloma protein MOPC104E (Mus musculus, UniProt P01724+P01756); assay: Quantitative precipitin inhibition assay, MOPC104E; type: binding, BALB/c mouse; conditions: 25 µg dextran B1498S
T1 sequence (P01756 whole entry): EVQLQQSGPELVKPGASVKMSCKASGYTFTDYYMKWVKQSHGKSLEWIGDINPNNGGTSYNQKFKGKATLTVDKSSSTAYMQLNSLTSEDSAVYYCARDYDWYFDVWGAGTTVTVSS
T1 sequence (P01724 20-129): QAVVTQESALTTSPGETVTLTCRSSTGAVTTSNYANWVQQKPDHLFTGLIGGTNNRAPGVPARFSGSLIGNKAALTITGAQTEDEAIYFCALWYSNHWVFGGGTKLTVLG

myeloma protein UPC102 = assay: Quantitative precipitin inhibition assay, UPC102; type: binding, BALB/c mouse; conditions: at 0.52 µmol; 15 µg dextran B1355S
myeloma protein J558 [3] = target: T2, myeloma protein J558 (Mus musculus, UniProt P01724+P01757); assay: Quantitative precipitin inhibition assay, J558; type: binding, BALB/c mouse; conditions: at 0.99 µmol; 15 µg dextran B1498S
T2 sequence (P01757 whole entry): as the sequence (P01756 whole entry) above, with Y100R, D101Y counted along it
T2 sequence (P01724 20-129): as the sequence (P01724 20-129) above

myeloma protein MOPC104E [4] = target: T1, myeloma protein MOPC104E; conditions: cited from earlier work
myeloma protein J558 [5] = target: T2, myeloma protein J558; assay: Quantitative precipitin assay with J558; type: binding, BALB/c mouse; conditions: Table I; total vol 400 µl
[6] = tested on: myeloma protein CAL20 TEPC1035; assay: Quantitative precipitin assay with CAL20 TEPC1035; type: binding, murine; conditions: Table I; 6.5 µg antibody N, total vol 400 µl
[7] = tested on: serum 895 (anti-panosyl-α(1→4)DGlc); assay: Quantitative precipitin assay with antiserum 895; type: binding, Rabbit; conditions: 80 µl undiluted serum, total vol 400 µl
[8] = inhibition of CAL20 TEPC1035-dextran B1498S precipitation

With 34-a-u-glucosylisomaltohexaose [I/5] the inhibition of precipitation ([1]; at 0.15 µmol) was 47%.

For `OC[C@H]1O[C@H](O[C@H]2[C@H](O)[C@@H](O)C(O)O[C@@H]2CO)[C@H](O)[C@@H](O)[C@@H]1O` (mixture of isomers) [Maltose, maltose], the Relative potency [1] was 1.0 and the “activity relative to methyl α-D-glucoside” value [1, 8] was “three times”.

`CC(=O)OC[C@@H](O)[C@@H](O)[C@H](O)[C@@H](O)C=O` [6-O-acetyl-glucose, 6-O-acetyl-glucose] gave a Relative potency [1] of 0.14.

In the case of `O=C[C@H](O)[C@@H](O)[C@H](O[C@@H]1O[C@H](CO)[C@@H](O)[C@H](O)[C@H]1O)[C@H](O)CO` [Cellobiose, DGlcβ(1→4)DGlc], the Relative potency [1] is reported as 0.24.

`OC[C@H]1O[C@H](O[C@H]2[C@@H](OC[C@H]3OC(O)[C@H](O)[C@@H](O)[C@@H]3O)O[C@H](CO)[C@@H](O)[C@@H]2O)[C@H](O)[C@@H](O)[C@@H]1O` (stereo partly shown) [DGlcα(1→2)DGlcα(1→6)DGlc] gave an inhibition of precipitation ([1]; at 0.36 µmol) of 15%.

With `OC[C@H]1O[C@H](O[C@@H]2[C@@H](O)[C@@H](OC[C@H]3OC(O)[C@H](O)[C@@H](O)[C@@H]3O)O[C@H](CO)[C@H]2O)[C@H](O)[C@@H](O)[C@@H]1O` (stereo partly shown) [DGlcα(1→3)DGlcα(1→6)DGlc] the inhibition of precipitation ([1]; at 0.16 µmol) was 40%.

In the case of `OC[C@H]1O[C@H](OC[C@H]2O[C@H](O[C@H]3[C@H](O)[C@@H](CO)OC(O)[C@@H]3O)[C@H](O)[C@@H](O)[C@@H]2O)[C@H](O)[C@@H](O)[C@@H]1O` (stereo partly shown) [DGlcα(1→6)DGlcα(1→3)DGlc], the Relative potency [1] is reported as 1.6.

For `OC[C@H]1O[C@H](OC[C@H]2O[C@H](O[C@H]3[C@H](O)[C@@H](O)[C@@H](O[C@H]4[C@H](O)[C@@H](O)C(O)O[C@@H]4CO)O[C@@H]3CO)[C@H](O)[C@@H](O)[C@@H]2O)[C@H](O)[C@@H](O)[C@@H]1O` (stereo partly shown) [DGlcα(1→6)DGlcα(1→4)DGlcα(1→4)DGlc], the Relative potency [1] was 2.4 and the “times more potent than the trisaccharide DGlcα(1→6)DGlcα(1→3)DGlc” value [1, 8] was 1.5 times.

Compound `OC[C@H]1OC(O)[C@H](O)[C@@H](O)[C@@H]1O` (stereo partly shown) [Glucose] has an inhibition of precipitation ([1]; at 0.2 µmol) of 22% and an inhibition of precipitation ([1]; at 0.92 µmol (Table II)) of 22%.

`OC[C@H]1O[C@H](OC[C@H]2O[C@H](OC[C@H]3O[C@H](OC[C@H]4O[C@H](OC[C@H]5OC(O)[C@H](O)[C@@H](O)[C@@H]5O)[C@H](O)[C@@H](O)[C@@H]4O)[C@H](O)[C@@H](O)[C@@H]3O[C@H]3O[C@H](CO)[C@@H](O)[C@H](O)[C@H]3O)[C@H](O)[C@@H](O)[C@@H]2O)[C@H](O)[C@@H](O)[C@@H]1O` (stereo partly shown) [II/3, 43-a-v-glucosylisomaltopen taose] showed a Relative potency [1] of 0.8.

With `OC[C@H]1O[C@H](OC[C@H]2O[C@H](OC[C@H]3O[C@H](OC[C@H]4O[C@H](OC[C@H]5O[C@H](OC[C@H]6O[C@H](OC[C@H]7OC(O)[C@H](O)[C@@H](O)[C@@H]7O)[C@H](O)[C@@H](O)[C@@H]6O)[C@H](O)[C@@H](O)[C@@H]5O)[C@H](O)[C@@H](O)[C@@H]4O)[C@H](O)[C@@H](O)[C@@H]3O)[C@H](O)[C@@H](O)[C@@H]2O)[C@H](O)[C@@H](O)[C@@H]1O` (stereo partly shown) [Isomaltoheptaose, isomaltoheptaose] the inhibition of precipitation ([1]; at 0.4 µmol) was 35%.

In the case of `OC[C@H]1O[C@H](OC[C@H]2O[C@H](OC[C@H]3O[C@H](OC[C@H]4O[C@H](OC[C@H]5O[C@H](OC[C@H]6OC(O)[C@H](O)[C@@H](O)[C@@H]6O)[C@H](O)[C@@H](O)[C@@H]5O)[C@H](O)[C@@H](O)[C@@H]4O)[C@H](O)[C@@H](O)[C@@H]3O)[C@H](O)[C@@H](O)[C@@H]2O)[C@H](O)[C@@H](O)[C@@H]1O` (stereo partly shown) [Isomaltohexaose, isomaltohexaose], the inhibition of precipitation ([1]; at 0.41 µmol) is reported as 20%.

`OC[C@H]1O[C@H](OC[C@H]2O[C@H](OC[C@H]3O[C@H](OC[C@H]4O[C@H](OC[C@H]5OC(O)[C@H](O)[C@@H](O)[C@@H]5O)[C@H](O)[C@@H](O)[C@@H]4O)[C@H](O)[C@@H](O)[C@@H]3O)[C@H](O)[C@@H](O)[C@@H]2O)[C@H](O)[C@@H](O)[C@@H]1O` (stereo partly shown) [Isomaltopentaose, isomaltopentaose] gave an inhibition of precipitation ([1]; at 0.5 µmol) of 44% and an inhibition of precipitation ([1]; at 0.59 µmol (Table II)) of 44%.

For `OC[C@H]1O[C@H](OC[C@H]2OC(O)[C@H](O)[C@@H](O)[C@@H]2O)[C@H](O)[C@@H](O)[C@@H]1O` (stereo partly shown) [Isomaltose, isomaltose], the Relative potency [1] was 0.19 and the “activity relative to methyl α-D-glucoside” value [1, 8] was “one-half”.

`OC[C@H]1O[C@H](OC[C@H]2O[C@H](OC[C@H]3OC(O)[C@H](O)[C@@H](O)[C@@H]3O)[C@H](O)[C@@H](O)[C@@H]2O)[C@H](O)[C@@H](O)[C@@H]1O` (stereo partly shown) [Isomaltotriose, isomaltotriose] gave a Relative potency [1] of 0.20.

`OC[C@H]1O[C@H](O[C@H]2[C@H](O)[C@@H](O)[C@@H](OC[C@H]3OC(O)[C@H](O)[C@@H](O)[C@@H]3O)O[C@@H]2CO)[C@H](O)[C@@H](O)[C@@H]1O` (stereo partly shown) [Isopanose, DGlcα(1→4)DGlcα(1→6)DGlc] gave a Relative potency [1] of 0.35.

In the case of `OC[C@H]1O[C@H](O[C@H]2[C@H](O)[C@@H](O)[C@@H](OC[C@H]3O[C@H](O[C@H]4[C@H](O)[C@@H](O)[C@@H](O[C@H]5[C@H](O)[C@@H](O)[C@@H](OC[C@H]6OC(O)[C@H](O)[C@@H](O)[C@@H]6O)O[C@@H]5CO)O[C@@H]4CO)[C@H](O)[C@@H](O)[C@@H]3O)O[C@@H]2CO)[C@H](O)[C@@H](O)[C@@H]1O` (stereo partly shown) [Isopanosylα(1→4)isopanose, DGlcα(1→4)DGlcα(1→6)DGlcα(1→4)DGlcα(1→4)DGlcα(1→6)DGlc], the Relative potency [1] is reported as 1.0 and the “times more potent than isopanose” value [1, 8] is reported as 2.85 times.

With `OC[C@H]1O[C@H](O[C@H]2C(O)O[C@H](CO)[C@@H](O)[C@@H]2O)[C@H](O)[C@@H](O)[C@@H]1O` (stereo partly shown) [Kojibiose, DGlcα(1→2)DGlc] the inhibition of precipitation ([1]; at 0.98 µmol) was 20%.

`OC[C@H]1O[C@H](O[C@H]2[C@H](O)[C@@H](O)[C@@H](O[C@H]3[C@H](O)[C@@H](O)[C@@H](O[C@H]4[C@H](O)[C@@H](O)C(O)O[C@@H]4CO)O[C@@H]3CO)O[C@@H]2CO)[C@H](O)[C@@H](O)[C@@H]1O` (stereo partly shown) [Maltotetraose, maltotetraose] showed a Relative potency [1] of 1.0.

For `OC[C@H]1O[C@H](O[C@@H]2[C@@H](O)[C@@H](O[C@@H]3[C@@H](O)[C@@H](O[C@@H]4[C@@H](O)[C@@H](O[C@H]5[C@H](O)[C@@H](CO)OC(O)[C@@H]5O)O[C@H](CO)[C@H]4O)O[C@H](CO)[C@H]3O)O[C@H](CO)[C@H]2O)[C@H](O)[C@@H](O)[C@@H]1O` (stereo partly shown) [Nigeropentaose, nigeropentaose], the Relative potency [1] was 0.29.

With `OC[C@H]1O[C@H](O[C@H]2[C@H](O)[C@@H](CO)OC(O)[C@@H]2O)[C@H](O)[C@@H](O)[C@@H]1O` (stereo partly shown) [Nigerose, nigerose] the Relative potency [1] was 0.35, the “activity relative to methyl α-D-glucoside” value [1, 8] was “equally” and the “inhibition of precipitation of MOPC104E” value (myeloma protein MOPC104E [2]; at 0.9 µmol) was 25%.

In the case of `OC[C@H]1O[C@H](O[C@@H]2[C@@H](O)[C@@H](O[C@@H]3[C@@H](O)[C@@H](O[C@H]4[C@H](O)[C@@H](CO)OC(O)[C@@H]4O)O[C@H](CO)[C@H]3O)O[C@H](CO)[C@H]2O)[C@H](O)[C@@H](O)[C@@H]1O` (stereo partly shown) [Nigerotetraose, nigerotetraose], the Relative potency [1] is reported as 0.29 and the “inhibition of precipitation of MOPC104E” value (myeloma protein MOPC104E [2]; at 0.82 µmol) is reported as 75%.

Work on `OC[C@H]1O[C@H](O[C@@H]2[C@@H](O)[C@@H](O[C@H]3[C@H](O)[C@@H](CO)OC(O)[C@@H]3O)O[C@H](CO)[C@H]2O)[C@H](O)[C@@H](O)[C@@H]1O` (stereo partly shown) [Nigerotriose, nigerotriose] yielded a Relative potency [1] of 0.29.

In the case of `OC[C@H]1O[C@H](OC[C@H]2O[C@H](O[C@H]3[C@H](O)[C@@H](O)C(O)O[C@@H]3CO)[C@H](O)[C@@H](O)[C@@H]2O)[C@H](O)[C@@H](O)[C@@H]1O` (stereo partly shown) [Panose], the “inhibition of precipitation of UPC102” value (myeloma protein UPC102) is reported as 15%, the Relative potency [1] is reported as 8.0 and the “times more active than kojibiose” value [1, 8] is reported as greater than 42 times. The “times more potent than the tetrasaccharide DGlcα(1→6)DGlcα(1→4)DGlcα(1→4)DGlc” value [1, 8] was 3.3 times and 2.5 times, the “inhibition of precipitation of J558” value (myeloma protein J558 [3]) was 15% and the “relative potency at 50% inhibition relative to nigerose as 1.0 on a molar basis” value (myeloma protein MOPC104E [4]) was 0.105. The “inhibition of precipitation of MOPC104E” value (myeloma protein MOPC104E [2]; up to 0.99 µmol) was “no inhibition”.

In the case of `OC[C@H]1O[C@H](O[C@H]2O[C@H](CO)[C@@H](O)[C@H](O)[C@H]2O)[C@H](O)[C@@H](O)[C@@H]1O` [Trehalose, DGlcα(1→1)DGlc], the inhibition of precipitation ([1]; at 1.1 µmol) is reported as “No inhibition”.

Work on Gentiobiose yielded a Relative potency [1] of 0.12.

With Glycogen the “Precipitating power with J558” value (myeloma protein J558 [5]) was “-”, the “Precipitating power with CAL20 TEPC1035” value [6] was “-” and the “Precipitation with serum 895” value [7] was “precipitated poorly”.

With Pullulan the “Precipitating power with J558” value (myeloma protein J558 [5]) was “-”, the “Precipitating power with CAL20 TEPC1035” value [6] was “-” and the “Precipitation with serum 895” value [7] was “precipitated poorly”.

maltoheptaose gave a Relative potency [1] of 2.4.

maltohexaose showed a Relative potency [1] of 2.4.

With maltopentaose the Relative potency [1] was 1.41.

With maltotriose the Relative potency [1] was 1.0.

nigerohexa-heptaose showed a Relative potency [1] of 0.33.
